Data as given in patent US20110098177A1, “METHODS AND COMPOSITIONS OF PLANT MICRONUTRIENTS” (NOVUS INTERNATIONAL INC., priority 2006, published 2011).
Read-outs that look alike come from different tables or passages of the source. Marks after values point to notes of the source that are not given here.

Tests used:
Assay type in all cases: in vivo
Tygress tomato plants [1] = assay: Yields of tomato fruits, greenhouse spring 2009 (Examples 13-15)
Protocol: (§1) The following experiments were performed in a green house during the spring of 2009 at GCREC, Balm, University of Florida. Crop set-up, procedures and variables were as follows.
(§2) Transplants of ‘Tygress’ tomato plants were planted in 2-gallon pots filled with commercial planting medium with nutrient concentration of Fe, Zn, Mn, Cu being negligible and insufficient for crop growth. Irrigation and non-micronutrient fertilizer were provided daily through microsprinklers at recommended rates for tomato production in Florida. No pesticides were used. Treatments were as described in Tables 42, 43, and 44 below. BIOX-Cu was compared to Cu-sulfate, BIOX-EDC, and BIOX-O; and BIOX-Fe was compared to Fe-sulfate and BIOX-EDF. BIOX-MEZ is Ca-HMTBA.
(§3) Treatments were applied at 6 WAT (weeks after transplanting) using a water volume of 200 mL/plant. Deionized water was used for foliar applications. A non-ionic surfactant was added. Other nutrients were applied as appropriate under non-limiting conditions.
Marketable fruit were collected three times during the growing season, starting at 10 WAT (4 weeks after the initial treatment). Tomato fruit was graded as marketable and non-marketable. Marketable fruit was sized as extra-large, large, and medium. Non-marketable fruit were harvested and number and weight recorded but not sized.
(§4) Experimental design was a randomized complete block design with 6 replications. Data were analyzed using a general linear model, and means were separated using an LSD test at the 5% significance level.

Aristotle bell pepper [2] = assay: Marketable yield per plant, greenhouse Fall 2007, bell pepper
Protocol: (§5) The following experiments were performed in a green house during the fall of 2007 at GCREC, Balm, University of Florida. Fifteen products, at 3 different application rates were examined. The plot size was 2-gallon pots. Crop set-up, procedures and variables were as follows.
(§6) Transplants of ‘Florida-47’ tomato and ‘Aristotle’ bell pepper plants in the 4-true leaf stage (about 6 inches tall) were planted in 2-gal pots on Aug. 27, 2007. Pots were filled with a commercially available planting medium. This medium was selected based on the mineral composition of the products to be applied without providing significant nutritional inputs to the crops. Irrigation was provided with drip lines delivering between 0.50 and 0.33 gal/day/pot for tomato and bell pepper, respectively, and the crops were irrigated three times per day. No foliar pesticides were necessary.
(§7) There were four control treatments corresponding to each target micronutrient in which non-Fe, non-Mn, non-Zn or non-Cu pots received all other essential nutrients under non-limiting conditions.
(§8) Treatments were applied at three rates (high, medium and low) obtained from the estimated concentration of Zn, Fe, Cu, and Mn foliarly-applied in tomato and bell pepper in field situations (Table 1). Products were weighed and dissolved in 200 ml of deionized water with a non-ionic surfactant and applied to the newly-matured open leaves of each crop at 3 and 7 weeks after transplant (WAT). Treated pots were isolated during application to avoid cross-contamination of other treatments.
(§9) Medium nutrient concentration was determined 1 week before treatment. The mineral composition of the medium was 26.8 ppm NH4—N, 49 ppm NO3—N, 15.8 ppm P, 91.2 ppm K, 82.3 ppm Ca, 58.2 ppm Mg, 23.9 ppm Na, 125.6 ppm S, 1.33 ppm Fe, 0.39 ppm Mn, 0.35 ppm Zn, 0.05 pp, Cu, 0.04 ppm B, 0 ppm Mo, 0.73 ppm Al, and 12.1 ppm Si. The pH of the medium was 5.36 and the electric conductivity was 1.38 mS/cm. The foliar tissue analysis was performed at 6 WAT and the concentration of N, P, K, Mg, Ca, S, B, Zn, Mn, Fe, and Cu was determined by a commercial laboratory. Plant toxicity was determined at 4 WAT by using a 0-10 visual scale, where 0=no visible damage and 10=total plant death. Marketable fruit weight was collected 2 times in bell pepper and 4 times in tomato following USDA standards.
(§10) Data were analyzed using a general linear model, and means were separated using orthogonal contrasts at the 5% significance level.

Tygress tomato plants [3] = details: for Toxicity (0-10): 0=no injury, 10=plant death
Protocol: as §1, §2, §3
Toxicity of the treatments was assessed by rating foliar tissue using a visual scale, where 0=no injury and 10=plant death.
as §4

Florida-47 tomato [4] = assay: Marketable yield per plant, greenhouse Fall 2007, tomato
Protocol: as §5, §6, §7, §8, §9, §10

Florida-47 tomato [5] = details: 1 week after treatment, scale 0 = no visible injury, 10 = plant death
In short: (§11)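 Florida-47 tomato and Aristotle bell pepper transplants in 2-gal pots with low-nutrient medium (pH 5.36), drip-irrigated; products at three rates in deionized water plus non-ionic surfactant sprayed on newly matured leaves at 3 and 7 WAT. Toxicity scored at 4 WAT (0=no damage, 10=death); foliar tissue analysed at 6 WAT; marketable fruit harvested 4 times (tomato).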

Aristotle bell pepper [6] = details: 1 week after treatment, scale 0 = no visible injury, 10 = plant death
In short: as §11

Tygress tomato plants [7] = assay: Foliar nutrient concentration at 7 WAT, greenhouse tomato spring 2009 (Examples 13-15); details: 7 WAT
Protocol: as §1, §2, §3
Foliar tissue nutrient analysis was performed at 3 WAT (i.e., 3 weeks before treatment) and 7 WAT (i.e., 1 weeks after treatment) on the non-applied newest leaves. The concentrations of N, P, K, Mg, Ca, B, Zn, Mn, Fe, and Cu in the foliar tissue were determined by a commercial laboratory. There were no significant differences between the foliar nutrient concentrations of any of the treatment groups prior to treatment.
as §4

[8] = foliar application at 3 and 7 WAT, rates not separated

CSCCC(O)C(=O)[O-].CSCCC(O)C(=O)[O-].[Ca+2] (stereo not shown) [BIOX-MEZ, Ca-HMTBA]
Marketable yield (Tygress tomato plants [1]; 0.6 lb/acre): 1100 g/plant | Marketable yield (Tygress tomato plants [1]; 1.2 lb/acre): 875 g/plant | Marketable yield (Tygress tomato plants [1]; 2.5 lb/acre): 925 g/plant | Marketable yield (Tygress tomato plants [1]; 4.8 lb/acre): 1000 g/plant | Marketable yield (Tygress tomato plants [1]; 7.2 lb/acre): 900 g/plant | Marketable or non-marketable yields, statement (Tygress tomato plants [1]; BIOX-MEZ treatment): no change in marketable or non-marketable yields | Marketable yield per plant, Pepper (Aristotle bell pepper [2]; [8]): 3.2* lb/plant | Bell pepper yield compared with control (in words) (Aristotle bell pepper [2]; foliar applications, P<0.05): significantly increased | Toxicity (0-10) (Tygress tomato plants [3]; 0.6 lb/acre): 0 | Toxicity (0-10) (Tygress tomato plants [3]; 1.2 lb/acre): 0 | Toxicity (0-10) (Tygress tomato plants [3]; 2.5 lb/acre): 1 | Toxicity (0-10) (Tygress tomato plants [3]; 4.8 lb/acre): 1 | Toxicity (0-10) (Tygress tomato plants [3]; 7.2 lb/acre): 1 | Toxic effects on the tomato plants, statement (Tygress tomato plants [3]; BIOX-MEZ application): no major toxic effects | Marketable yield per plant, Tomato (Florida-47 tomato [4]; [8]): 3.0* lb/plant | Tomato yield compared with control (in words) (Florida-47 tomato [4]; foliar applications, P<0.05): significantly increased | Tomato toxicity (Florida-47 tomato [5]; High rate): 0 | Tomato toxicity (Florida-47 tomato [5]; Low rate): 0 | Tomato toxicity (Florida-47 tomato [5]; Medium rate): 0 | Pepper toxicity (Aristotle bell pepper [6]; High rate): 0 | Pepper toxicity (Aristotle bell pepper [6]; Low rate): 0 | Pepper toxicity (Aristotle bell pepper [6]; Medium rate): 0 | Nutrient concentration in tomato leaves: Ca (Tygress tomato plants [7]; 0.6 lb/acre): 1.3 b % | Nutrient concentration in tomato leaves: K (Tygress tomato plants [7]; 0.6 lb/acre): 3.8% | Nutrient concentration in tomato leaves: Mg (Tygress tomato plants [7]; 0.6 lb/acre): 0.6% | Nutrient concentration in tomato leaves: N (Tygress tomato plants [7]; 0.6 lb/acre): 3.8% | Nutrient concentration in tomato leaves: P (Tygress tomato plants [7]; 0.6 lb/acre): 0.6% | Nutrient concentration in tomato leaves: Ca (Tygress tomato plants [7]; 1.2 lb/acre): 1.3 b % | Nutrient concentration in tomato leaves: K (Tygress tomato plants [7]; 1.2 lb/acre): 4.4% | Nutrient concentration in tomato leaves: Mg (Tygress tomato plants [7]; 1.2 lb/acre): 0.6% | Nutrient concentration in tomato leaves: N (Tygress tomato plants [7]; 1.2 lb/acre): 4.2% | Nutrient concentration in tomato leaves: P (Tygress tomato plants [7]; 1.2 lb/acre): 0.7% | Nutrient concentration in tomato leaves: Ca (Tygress tomato plants [7]; 2.5 lb/acre): 1.3 b % | Nutrient concentration in tomato leaves: K (Tygress tomato plants [7]; 2.5 lb/acre): 3.9% | Nutrient concentration in tomato leaves: Mg (Tygress tomato plants [7]; 2.5 lb/acre): 0.5% | Nutrient concentration in tomato leaves: N (Tygress tomato plants [7]; 2.5 lb/acre): 4.4% | Nutrient concentration in tomato leaves: P (Tygress tomato plants [7]; 2.5 lb/acre): 0.7% | Nutrient concentration in tomato leaves: Ca (Tygress tomato plants [7]; 4.8 lb/acre): 1.2 b % | Nutrient concentration in tomato leaves: K (Tygress tomato plants [7]; 4.8 lb/acre): 3.9% | Nutrient concentration in tomato leaves: Mg (Tygress tomato plants [7]; 4.8 lb/acre): 0.6% | Nutrient concentration in tomato leaves: N (Tygress tomato plants [7]; 4.8 lb/acre): 3.8% | Nutrient concentration in tomato leaves: P (Tygress tomato plants [7]; 4.8 lb/acre): 0.6% | Nutrient concentration in tomato leaves: Ca (Tygress tomato plants [7]; 7.2 lb/acre): 1.7 a % | Nutrient concentration in tomato leaves: K (Tygress tomato plants [7]; 7.2 lb/acre): 4.6% | Nutrient concentration in tomato leaves: Mg (Tygress tomato plants [7]; 7.2 lb/acre): 0.6% | Nutrient concentration in tomato leaves: N (Tygress tomato plants [7]; 7.2 lb/acre): 4.7% | Nutrient concentration in tomato leaves: P (Tygress tomato plants [7]; 7.2 lb/acre): 0.7% | Foliar Ca concentration, statement (Tygress tomato plants [7]; BIOX-MEZ at a rate of 7.2 lb/acre): significantly increased | Foliar levels of N, P, K, and Mg, statement (Tygress tomato plants [7]; BIOX-MEZ treatment): not affected
